The record followed here is patent publication US20220202696A1, “AGENT FOR PROMOTING COLLAGEN PRODUCTION, MEDICAMENT, COSMETIC, AND METHOD FOR MANUFACTURING AGENT FOR PROMOTING COLLAGEN PRODUCTION” (Murata Manufacturing Co., Ltd., priority 2019, published 2022).

Each structure is given as a SMILES string.

The test system of the test is Normal human dermal fibroblasts. The test can be described thus: Type I collagen production in aging induction-treated fibroblasts (ELISA). Type of test: cell-based. Conditions: positive control at 25 μmol/L, 48 hours culture, aging induction-treated cells, ELISA of medium. The procedure:
Normal human dermal fibroblasts were maintained using a DMEM medium (+5% FBS) in a culture vessel to confluence. […] After this procedure was repeated once daily for 4 days, the cells were further cultured in DMEM (10% FBS) for 3 days, and the cultured cells were obtained and used as aging induction-treated cells. The aging induction of the cells was confirmed by senescence-associated beta-galactosidase (SA-β-Gal, an aging marker) staining. The aging induction-treated cells were seeded in 48-well plate at a cell density of 5.0×10^4 cells/well using a DMEM medium (+5% FBS). […] Then, the cells were cultured for 48 hours, thereafter the medium was collected, and the amount of type I collagen in the medium was quantified by an ELISA method (direct ELISA using an anti-Human Collagen Type I antibody (Rabbit)).
(In general: In an ELISA, binding on a coated surface is turned into a signal by an enzyme label.)

As to `O=C1O[C@H]([C@@H](O)CO)C(O)=C1O` [vitamin C], the “production of type I collagen” value is “increased”.
